Data from publication PMC12378234, “Enzyme-mediated aminoglycoside resistance without target mimicry” (Communications Chemistry, 2025).
≈ marks a conversion by molar mass, not a printed value. Where “and” joins values, the source holds several entries; their conditions need not be identical. Equal entries are not always repeated. Where two headings read alike, the source gives them in different places.

Legend:
AAC(3)-Ia = AAC(3)-Ia (Acinetobacter baumannii, UniProt D7R512); experiment: Isothermal titration calorimetry; assay type: binding
Protocol: To accurately measure protein ligand interactions, the concentration of our proteins of interest was measured spectrophotometrically using the NanoDrop OneC Spectrometer (Thermo Scientific). ITC experiments were performed on a MicroCal iTC 200 (General Electric) at 25 °C with stirring at 750 rpm. Unique buffer solutions were used for each enzyme. AAC(3)-Ia was prepared in 50 mM HEPES, pH 7, and 150 mM NaCl. AAC(3)-IIIa was prepared in 120 mM Tris, pH 7.5, and 150 mM NaCl. AAC(3)-XIa was prepared in 20 mM Tris, pH 7.5, and 150 mM NaCl. The cell contained 550 μM AAC(3)-Ia, 350 μM AAC(3)-IIIa, or 450 μM AAC(3)-XIa. All experiments also contained 5000 μM of coenzyme A trilithium salt in the cell. […] In all ITC experiments, aminoglycosides were prepared in the same buffering solution as the target protein. The ligands were injected 29 times ([…] per injection) with a 180 s interval between injections. Results were analyzed using ORIGIN software version 7E (MicroCal) using the molecular weight of a single protomer of each protein and fitted with a two-set of sites binding model (Supplementary Fig. 5). Data analysis was performed in Microsoft Excel and GraphPad5 software. One-way ANOVA and Tukey’s multiple comparison tests were used to determine the statistical significance of binding affinities.

[1] = test system: BL21(DE3) E. coli transformed with pUCP18 vector expressing AAC(3)-IIIa; experiment: Antibiotic susceptibility testing, endpoint MIC assay; assay type: cell-based; conditions: Escherichia coli, 20 h, read-out: Endpoint minimum inhibitory concentration (MIC)
Protocol: (§1) Ten milliliters of cultures of LB containing […] ampicillin were inoculated from glycerol stocks of transformed BL21(DE3) E. coli containing genes expressing the proteins of interest in pUCP18 vectors. Experiments were performed using 6xHis-tagged fusion-proteins, as well as untagged wild-type proteins. These cultures were incubated at 37 °C with 200 rpm agitation for 16 h. Turbidity was measured through OD600 with a NanoDrop OneC Spectrometer (Thermo Scientific). From the initial cultures, secondary 10 mL cultures were prepared with OD600 values of 0.1. These cultures were grown until OD600 values of 0.4–0.6 were reached and diluted to bring all cultures to the same OD600. Cultures were induced with 1 mM Isopropyl β-D-1-thiogalactopyranoside and incubated for 4 h. Cultures were diluted to 1 × 10^6 cells mL^−1. Two microliters of culture was added to 198 μL of LB with an appropriate aminoglycoside titration concentration. The formulated 96-well culture plate (Sarstedt) was incubated at 37 °C with 120 rpm orbital agitation. The remainder of the bacterial culture was immediately lysed and processed for Western blotting. OD600 was measured after 20 h using the Molecular Devices Spectra MAX 190 plate reader.

[2] = test system: BL21(DE3) E. coli transformed with pUCP18 vector expressing AAC(3)-Ia; experiment: as above; assay type: cell-based; conditions: Escherichia coli, 20 h, read-out: Endpoint minimum inhibitory concentration (MIC)
Protocol: as §1

[3] = test system: BL21(DE3) E. coli transformed with pUCP18 vector expressing AAC(3)-XIa; experiment: as above; assay type: cell-based; conditions: Escherichia coli, 20 h, read-out: Endpoint minimum inhibitory concentration (MIC)
Protocol: as §1

[4] = test system: empty pUCP18 vector transformed E. coli; experiment: as above; assay type: cell-based; conditions: Escherichia coli; empty pUCP18 vector control E. coli; after 20 h of growth; read-out: Endpoint minimum inhibitory concentration (MIC)
Protocol: as §1

[5] = test system: BL21(DE3) E. coli transformed with pUCP18 vector expressing untagged AAC(3)-IIIa; assay type: cell-based; conditions: E. coli expressing AAC(3)-IIIa; 12 μg mL^−1 antibiotic; 17 h
Protocol: (§2) Ten milliliters of LB containing […] ampicillin were inoculated from glycerol stocks of transformed BL21(DE3) E. coli containing genes expressing the proteins of interest in pUCP18 vectors. These cultures were incubated at 37 °C with 200 rpm agitation for 16 h. Turbidity was measured through OD600 with a NanoDrop OneC Spectrometer (Thermo Scientific). From the initial cultures, secondary 10 mL cultures were prepared with OD600 values of 0.1. These cultures were grown until OD600 values of 0.4–0.6 were reached and diluted to bring all cultures to the same OD600. Cultures were induced with 1 mM Isopropyl β-D-1-thiogalactopyranoside and incubated for 4 h. Two microliters of culture was added to 198 μL of LB with an appropriate aminoglycoside titration concentration. Each titration point was repeated n = 4 times. The formulated 96-well culture plate (Sarstedt) had OD600 measured on a 20-min interval over 17 h using a BioTek Cytation 5 Cell Imaging Multimode Reader, incubating at 37 °C with 282 cpm orbital agitation. Experiments were repeated with fresh cultures on separate days to ensure consistent trends. Data was analyzed in Microsoft Excel and GraphPad5. The remainder of the culture immediately had its RNA isolated for qPCR experiments.

[6] = test system: BL21(DE3) E. coli transformed with pUCP18 vector expressing untagged AAC(3)-Ia; assay type: cell-based; conditions: E. coli expressing AAC(3)-Ia; 12 μg mL^−1 antibiotic; 17 h
Protocol: as §2

[7] = test system: BL21(DE3) E. coli transformed with pUCP18 vector expressing untagged AAC(3)-XIa; assay type: cell-based
Protocol: as §2

[8] = AAC(3)-Ia, first set of sites, 25 °C, with coenzyme A, n = 3
[9] = AAC(3)-Ia, second set of sites, 25 °C, with coenzyme A, n = 3

CN[C@@H]1[C@@H](O)[C@@H](O[C@@H]2[C@@H](O)[C@H](O[C@H]3OC(CN)=CC[C@H]3N)[C@@H](N)C[C@H]2N)OC[C@]1(C)O [Sisomicin, sisomicin]
TΔS (AAC(3)-Ia; [8]): 3.3 ± 0.427 kcal/mol
ΔG (AAC(3)-Ia; [8]): -6.25 ± 0.596 kcal/mol
ΔH (AAC(3)-Ia; [8]): -2.95 ± 0.416 kcal/mol
N (sites) (AAC(3)-Ia; AAC(3)-Ia, first set of sites, two-set of sites model, 25 °C, with coenzyme A, n = 3): 0.50 ± 0.06 sites
N2 (sites) (AAC(3)-Ia; [9]): 0.54 ± 0.01 sites
TΔS 2 (AAC(3)-Ia; [9]): 3.45 ± 0.795 kcal/mol
ΔG 2 (AAC(3)-Ia; [9]): -5.66 ± 1.1 kcal/mol
ΔH 2 (AAC(3)-Ia; [9]): -2.21 ± 0.763 kcal/mol
Kd (AAC(3)-Ia; Kd2, AAC(3)-Ia, second set of sites, 25 °C, with coenzyme A, n = 3): 71.8 ± 7.5 µM
Kd (AAC(3)-Ia; Kd, AAC(3)-Ia, first set of sites, two-set of sites model, 25 °C, with coenzyme A, n = 3): 26 ± 0.6 µM
Kd (AAC(3)-Ia; Kd, AAC(3)-Ia, individual replicates, raw data behind Fig. 6): 26.2 µM and 24.9 µM and 27 µM
MIC [1]: 12 µg/mL (≈ 26.8 µM)
MIC [2]: 6 µg/mL (≈ 13.4 µM)
MIC [3]: 12 µg/mL (≈ 26.8 µM)
MIC [4]: 6 µg/mL (≈ 13.4 µM)
Growth (OD600 growth curve) [5]: none of the strains of transformed E. coli were able to grow at all
Growth (OD600 growth curve) [6]: none of the strains of transformed E. coli were able to grow at all
OD600 growth curve ([7]; 3 ug/mL Sisomicin, time point 12:39:10): 0.741 and 0.631 and 0.615 and 0.786
OD600 growth curve ([7]; 3 ug/mL Sisomicin, time point 12:59:10): 0.747 and 0.634 and 0.621 and 0.795
OD600 growth curve ([7]; 3 ug/mL Sisomicin, time point 13:19:10): 0.745 and 0.632 and 0.619 and 0.794
OD600 growth curve ([7]; 3 ug/mL Sisomicin, time point 13:39:10): 0.742 and 0.632 and 0.619 and 0.79
OD600 growth curve ([7]; 3 ug/mL Sisomicin, time point 13:59:10): 0.738 and 0.632 and 0.618 and 0.787
OD600 growth curve ([7]; 3 ug/mL Sisomicin, time point 14:19:10): 0.744 and 0.634 and 0.623 and 0.797
OD600 growth curve ([7]; 3 ug/mL Sisomicin, time point 14:39:10): 0.747 and 0.635 and 0.625 and 0.799
OD600 growth curve ([7]; 3 ug/mL Sisomicin, time point 14:59:10): 0.745 and 0.635 and 0.627 and 0.795
OD600 growth curve ([7]; 6 ug/mL Sisomicin, time point 12:39:10): 0.62 and 0.602 and 0.749 and 0.849
OD600 growth curve ([7]; 6 ug/mL Sisomicin, time point 12:59:10): 0.627 and 0.606 and 0.748 and 0.838
OD600 growth curve ([7]; 6 ug/mL Sisomicin, time point 13:19:10): 0.634 and 0.612 and 0.751 and 0.829
OD600 growth curve ([7]; 6 ug/mL Sisomicin, time point 13:39:10): 0.639 and 0.613 and 0.744 and 0.819
OD600 growth curve ([7]; 6 ug/mL Sisomicin, time point 13:59:10): 0.641 and 0.612 and 0.741 and 0.805
OD600 growth curve ([7]; 6 ug/mL Sisomicin, time point 14:19:10): 0.645 and 0.615 and 0.738 and 0.792
OD600 growth curve ([7]; 6 ug/mL Sisomicin, time point 14:39:10): 0.654 and 0.626 and 0.749 and 0.784
OD600 growth curve ([7]; 6 ug/mL Sisomicin, time point 14:59:10): 0.663 and 0.629 and 0.759 and 0.771
OD600 growth curve ([7]; 6 ug/mL Sisomicin, time point 15:19:10): 0.67 and 0.64 and 0.762
OD600 growth curve ([7]; 12 ug/mL Sisomicin, time point 12:39:10): 0.093 and 0.101 and 0.109 and 0.105
OD600 growth curve ([7]; 12 ug/mL Sisomicin, time point 12:59:10): 0.093 and 0.101 and 0.109 and 0.105
OD600 growth curve ([7]; 12 ug/mL Sisomicin, time point 13:19:10): 0.093 and 0.101 and 0.108 and 0.104
OD600 growth curve ([7]; 12 ug/mL Sisomicin, time point 13:39:10): 0.093 and 0.101 and 0.108 and 0.104
OD600 growth curve ([7]; 12 ug/mL Sisomicin, time point 13:59:10): 0.093 and 0.1 and 0.108 and 0.104
OD600 growth curve ([7]; 12 ug/mL Sisomicin, time point 14:19:10): 0.093 and 0.1 and 0.108 and 0.103
OD600 growth curve ([7]; 12 ug/mL Sisomicin, time point 14:39:10): 0.093 and 0.1 and 0.108 and 0.103
OD600 growth curve ([7]; 12 ug/mL Sisomicin, time point 14:59:10): 0.093 and 0.1 and 0.107 and 0.103
OD600 growth curve ([7]; 12 ug/mL Sisomicin, time point 15:19:10): 0.093
Growth (OD600 growth curve) ([7]; E. coli expressing AAC(3)-XIa, 12 μg mL^−1 antibiotic, 17 h): none of the strains of transformed E. coli were able to grow at all
